PubChem BioAssay AID248 (DTP/NCI, 2004)
Where “and” joins values, the source holds several entries; their conditions need not be identical. Equal values may be shown once. Toxic doses and inconclusive results are not listed. Rule as the data show it: active = T/C of 150% or more; inactive = T/C below 125%.

Tested on: L1210 leukemia ip in BDF1 mice, survival T/C
Experiment: NCI In Vivo Anticancer Drug Screen. Data for tumor model L1210 Leukemia (intraperitoneal) in B6D2F1 (BDF1) mice
Conditions: endpoint: mean survival time, higher = longer survival
Method in brief: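 Tumor cells were implanted, animals were treated, and survival was followed. The result divides the treated measurement by the vehicle-control measurement.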

[1] = dose: 100.0 mg/kg/injection, schedule: Q04DX003 (ip), vehicle: saline with Tween-80
[2] = dose: 200.0 mg/kg/injection, schedule: Q04DX003 (ip), vehicle: saline with Tween-80
[3] = dose: 400.0 mg/kg/injection, schedule: Q04DX003 (ip), vehicle: saline with Tween-80
[4] = dose: 100.0 mg/kg/injection, schedule: Q01DX009 (ip), vehicle: Klucel (hydroxypropylcellulose) (HPC)
[5] = dose: 200.0 mg/kg/injection, schedule: Q01DX009 (ip), vehicle: Klucel (hydroxypropylcellulose) (HPC)
[6] = dose: 100.0 mg/kg/injection, schedule: Q01DX001 (ip), vehicle: carboxymethylcellulose (CMC)
[7] = dose: 200.0 mg/kg/injection, schedule: Q01DX001 (ip), vehicle: carboxymethylcellulose (CMC)
[8] = dose: 400.0 mg/kg/injection, schedule: Q01DX001 (ip), vehicle: carboxymethylcellulose (CMC)
[9] = dose: 100.0 mg/kg/injection, schedule: Q01DX001 (ip), vehicle: Klucel (hydroxypropylcellulose) (HPC)

Measured: T/C

COc1ccc(C)cc1NC(=O)Nc1cc(Cl)ccc1C
inactive: dose: 100.0 mg/kg/injection, schedule: Q01DX001 (ip), vehicle: saline with Tween-80 93 % of control | dose: 100.0 mg/kg/injection, schedule: Q01DX009 (ip), vehicle: saline with Tween-80 95 % of control and 112 % of control | dose: 100.0 mg/kg/injection, schedule: Q04DX002 (ip), vehicle: saline with Tween-80 102 % of control and 87 % of control | [1] 90 % of control | dose: 200.0 mg/kg/injection, schedule: Q01DX001 (ip), vehicle: saline with Tween-80 93 % of control | dose: 200.0 mg/kg/injection, schedule: Q01DX009 (ip), vehicle: saline with Tween-80 102 % of control and 88 % of control | dose: 200.0 mg/kg/injection, schedule: Q04DX002 (ip), vehicle: saline with Tween-80 87 % of control | [2] 101 % of control | dose: 400.0 mg/kg/injection, schedule: Q01DX009 (ip), vehicle: saline with Tween-80 93 % of control and 91 % of control | dose: 400.0 mg/kg/injection, schedule: Q04DX002 (ip), vehicle: saline with Tween-80 95 % of control and 87 % of control | [3] 94 % of control

CC(C)OC(=S)Nc1ccccc1
inactive: dose: 50.0 mg/kg/injection, schedule: Q01DX009 (ip), vehicle: Klucel (hydroxypropylcellulose) (HPC) 102 % of control | dose: 100.0 mg/kg/injection, schedule: Q01DX001 (ip), vehicle: gum acacia 102 % of control | [4] 107 % of control | dose: 200.0 mg/kg/injection, schedule: Q01DX001 (ip), vehicle: gum acacia 98 % of control | [5] 98 % of control | dose: 400.0 mg/kg/injection, schedule: Q01DX001 (ip), vehicle: gum acacia 95 % of control

CCCCOC(=O)c1ccc(OC(=O)Nc2ccc(C)cc2[N+](=O)[O-])cc1
inactive: dose: 50.0 mg/kg/injection, schedule: Q01DX009 (ip), vehicle: saline + alcohol 97 % of control | dose: 100.0 mg/kg/injection, schedule: Q01DX009 (ip), vehicle: saline + alcohol 123 % of control | dose: 200.0 mg/kg/injection, schedule: Q01DX009 (ip), vehicle: saline + alcohol 103 % of control

O=S(=O)(Cl)OC1C2COC(O2)C(OS(=O)(=O)Cl)C1OS(=O)(=O)Cl (stereo unspecified)
inactive: dose: 12.5 mg/kg/injection, schedule: Q04DX003 (ip), vehicle: saline with Tween-80 102 % of control | dose: 25.0 mg/kg/injection, schedule: Q04DX003 (ip), vehicle: saline with Tween-80 92 % of control | dose: 50.0 mg/kg/injection, schedule: Q04DX003 (ip), vehicle: saline with Tween-80 96 % of control

CC1=N/C(=C/c2ccc([N+](=O)[O-])s2)C(=O)O1
inactive: dose: 50.0 mg/kg/injection, schedule: Q04DX002 (ip), vehicle: Klucel (hydroxypropylcellulose) (HPC) 112 % of control | dose: 100.0 mg/kg/injection, schedule: Q04DX002 (ip), vehicle: Klucel (hydroxypropylcellulose) (HPC) 97 % of control | dose: 200.0 mg/kg/injection, schedule: Q04DX002 (ip), vehicle: Klucel (hydroxypropylcellulose) (HPC) 95 % of control and 115 % of control | dose: 400.0 mg/kg/injection, schedule: Q04DX002 (ip), vehicle: Klucel (hydroxypropylcellulose) (HPC) 98 % of control

CCCCC(=O)NCC(=O)N1CCC(C(=O)NCCCCC(=O)OC)C1 (stereo unspecified)
inactive: dose: 100.0 mg/kg/injection, schedule: Q04DX002 (ip), vehicle: saline 96 % of control | dose: 200.0 mg/kg/injection, schedule: Q04DX002 (ip), vehicle: saline 115 % of control | dose: 400.0 mg/kg/injection, schedule: Q04DX002 (ip), vehicle: saline 104 % of control

O=c1[nH]c(-c2ccccc2)nc2c1OCN(Cc1ccccc1)C2
inactive: dose: 50.0 mg/kg/injection, schedule: Q01DX001 (ip), vehicle: carboxymethylcellulose (CMC) 98 % of control | [6] 101 % of control | [7] 98 % of control | [8] 93 % of control

O=C1CC2CCCCN2C2=C1CCCC2 (stereo unspecified)
inactive: dose: 25.0 mg/kg/injection, schedule: Q01DX009 (ip), vehicle: alcohol 101 % of control | dose: 50.0 mg/kg/injection, schedule: Q01DX009 (ip), vehicle: alcohol 98 % of control | dose: 100.0 mg/kg/injection, schedule: Q01DX009 (ip), vehicle: alcohol 93 % of control

O=C1c2ccccc2-c2c(N=Cc3ccc4c(c3)OCO4)c(Br)cc(Br)c21
inactive: dose: 100.0 mg/kg/injection, schedule: Q01DX001 (ip), vehicle: other 93 % of control | dose: 200.0 mg/kg/injection, schedule: Q01DX001 (ip), vehicle: other 98 % of control | dose: 400.0 mg/kg/injection, schedule: Q01DX001 (ip), vehicle: other 95 % of control

NC(N)=N/N=C/c1cc([N+](=O)[O-])ccc1OCC(=O)O
inactive: dose: 60.0 mg/kg/injection, schedule: Q01DX Z (oral), vehicle: methylcellulose (MC) 98 % of control | dose: 120.0 mg/kg/injection, schedule: Q01DX Z (oral), vehicle: methylcellulose (MC) 98 % of control | dose: 240.0 mg/kg/injection, schedule: Q01DX Z (ip), vehicle: methylcellulose (MC) 95 % of control | dose: 240.0 mg/kg/injection, schedule: Q01DX Z (oral), vehicle: methylcellulose (MC) 115 % of control | dose: 360.0 mg/kg/injection, schedule: Q01DX Z (ip), vehicle: methylcellulose (MC) 93 % of control | dose: 480.0 mg/kg/injection, schedule: Q01DX Z (ip), vehicle: methylcellulose (MC) 100 % of control | dose: 480.0 mg/kg/injection, schedule: Q01DX Z (oral), vehicle: methylcellulose (MC) 102 % of control

CCOC(=O)NNC(=O)Nc1ccc(Cl)c([N+](=O)[O-])c1
inactive: dose: 100.0 mg/kg/injection, schedule: Q01DX009 (ip), vehicle: saline 104 % of control | dose: 200.0 mg/kg/injection, schedule: Q01DX009 (ip), vehicle: saline 93 % of control

Cc1nc2c(N)nnc(N)c2nc1C
inactive: dose: 25.0 mg/kg/injection, schedule: Q01DX001 (ip), vehicle: Klucel (hydroxypropylcellulose) (HPC) 97 % of control | dose: 50.0 mg/kg/injection, schedule: Q01DX001 (ip), vehicle: Klucel (hydroxypropylcellulose) (HPC) 93 % of control | [9] 95 % of control | [4] 100 % of control

COc1cc(OC)c(NC(=O)c2ccccc2Cl)cc1Cl
inactive: [4] 92 % of control | [5] 90 % of control | dose: 400.0 mg/kg/injection, schedule: Q01DX009 (ip), vehicle: Klucel (hydroxypropylcellulose) (HPC) 93 % of control

OCCCOc1ccc(Cl)cc1Cl
inactive: dose: 100.0 mg/kg/injection, schedule: Q04DX002 (sc), vehicle: olive oil, sesame oil, peanut oil 100 % of control | dose: 200.0 mg/kg/injection, schedule: Q04DX002 (sc), vehicle: olive oil, sesame oil, peanut oil 95 % of control | dose: 400.0 mg/kg/injection, schedule: Q04DX002 (sc), vehicle: olive oil, sesame oil, peanut oil 110 % of control

COc1ccc(-c2c3c(cc4cc(OC)c(OC)cc24)C(=O)OC3=O)cc1OC
inactive: [6] 93 % of control | [7] 89 % of control | [8] 89 % of control

CC(=O)C(=Cc1ccccc1Cl)C(C)=O
inactive: [9] 104 % of control | dose: 100.0 mg/kg/injection, schedule: Q04DX003 (ip), vehicle: Klucel (hydroxypropylcellulose) (HPC) 94 % of control | dose: 200.0 mg/kg/injection, schedule: Q01DX001 (ip), vehicle: Klucel (hydroxypropylcellulose) (HPC) 98 % of control | dose: 200.0 mg/kg/injection, schedule: Q04DX003 (ip), vehicle: Klucel (hydroxypropylcellulose) (HPC) 91 % of control | dose: 400.0 mg/kg/injection, schedule: Q01DX001 (ip), vehicle: Klucel (hydroxypropylcellulose) (HPC) 90 % of control | dose: 400.0 mg/kg/injection, schedule: Q04DX003 (ip), vehicle: Klucel (hydroxypropylcellulose) (HPC) 100 % of control

CC(C)CCCC(C)C1CCC2C3CC(=O)NC45CC4CCC5(C)C3CCC12C (stereo unspecified)
inactive: [1] 116 % of control | [2] 97 % of control | [3] 92 % of control
